Laboratory results from patent US10253023B2, “Heteroaryl compounds as BTK inhibitors and uses thereof” (Merck Patent GmbH, priority 2014, dated 2019).

Target: T1, BTK C481S (Homo sapiens, UniProt Q06187, C481S)
T1 construct: His-TEV-hsBTK(328-659)(C481S) from the Merck Serono Protein Purification Laboratory; His (N); TEV (protease cleavage site) (N)
Assay: Assay B: Microfluidic Off-Chip Mobility Shift Assay against BTK C481S enzyme
Assay type: biochemical
Details: His-TEV-hsBTK(328-659)(C481S), 90 min, 25° C
Description: Assay B: Microfluidic Off-Chip Mobility Shift Assay Protocol for Potency Assessment Against BTK C481S Enzyme The protocol below describes a microfluidic, off-chip mobility shift kinase assay to measure inherent potency of compounds against BTK C481S enzyme. The mechanics of the assay platform are described by the vendor (PerkinElmer, Hopkinton, Mass.) on their website at the following URL: […].com. Briefly, 2.5× stocks of His-TEV-hsBTK(328-659)(C481S) from the Merck Serono Protein Purification Laboratory in Darmstadt, Germany (PCS, […]/234), 1.6×ATP and appropriate […] peptide substrate (FITC-AHA-[…]-NH2; Tufts University Core Facility custom synthesis) were prepared in kinase reaction buffer consisting of 25 mM MgCl2, 0.015% Brij-35 (30%), 100 mM HEPES, pH 7.5, and 10 mM DTT. […] Terminated reactions were monitored at -2 PSI, -3000 V/-700 Volts in a LabChip 3000 plate reader from Caliper Life Sciences, a PerkinElmer Company (Hopkinton, Mass.), and the activity was quantified by laser-induced fluorescence measuring the charge/mass difference between substrate and product resulting from peptide phosphorylation. IC50 and efficacy were determined by plotting log [Inhibitor] vs. % Activity in GeneData Screener (Basel, Switzerland).

T1 sequence (Q06187 328-659 C481S): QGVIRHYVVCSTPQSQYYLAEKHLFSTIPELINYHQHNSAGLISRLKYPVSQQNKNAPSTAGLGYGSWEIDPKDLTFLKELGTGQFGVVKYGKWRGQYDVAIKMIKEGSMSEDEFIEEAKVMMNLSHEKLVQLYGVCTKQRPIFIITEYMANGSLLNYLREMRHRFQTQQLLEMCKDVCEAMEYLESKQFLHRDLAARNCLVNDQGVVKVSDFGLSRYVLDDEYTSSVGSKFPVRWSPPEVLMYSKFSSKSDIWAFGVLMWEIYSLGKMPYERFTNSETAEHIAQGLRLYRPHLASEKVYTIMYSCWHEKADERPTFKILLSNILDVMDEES

IC50: < 100 nM
SMILES: CC(C)(C)c1noc(C(=O)NCc2ccc(-c3ccnc4[nH]c(-c5cnn(C6COC6)c5)nc34)cc2F)n1 [Example 128]
